{"source": "paper PMC4490784", "about": "“Compensatory induction of MYC expression by sustained CDK9 inhibition via a BRD4-dependent mechanism” (eLife, 2015)", "test_in_all_cases": "KINOMEscan binding assay", "key": {"[1]": {"biological_target": "T1, TYK2(JH1domain-catalytic) (Homo sapiens, UniProt P29597)", "T1 construct": "TYK2(JH1domain-catalytic); purchased DiscoveRx KINOMEscan", "T1 sequence (P29597 871-1187 limits assumed)": "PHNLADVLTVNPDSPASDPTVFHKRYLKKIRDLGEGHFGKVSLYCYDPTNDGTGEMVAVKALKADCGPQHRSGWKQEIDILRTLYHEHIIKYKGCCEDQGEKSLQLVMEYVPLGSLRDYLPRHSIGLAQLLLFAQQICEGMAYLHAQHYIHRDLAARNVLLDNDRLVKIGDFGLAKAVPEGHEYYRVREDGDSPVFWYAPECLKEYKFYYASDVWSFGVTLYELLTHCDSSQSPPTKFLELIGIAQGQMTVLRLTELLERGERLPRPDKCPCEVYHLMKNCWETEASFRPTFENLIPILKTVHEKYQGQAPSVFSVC", "outline": "(§1)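 Kinome-wide competition binding assay (active site-directed), i-CDK9 tested at 1 µM and 10 µM, >400 targets.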"}, "CAMK1G": {"biological_target": "T2, CAMK1G (Homo sapiens, UniProt Q96NX5)", "T2 construct": "purchased DiscoveRx KINOMEscan", "settings": "read-out: % Retention on Solid Support", "outline": "as §1"}, "EGFR(T790M)": {"biological_target": "T3, EGFR(T790M) (Homo sapiens, UniProt P00533, T790M)", "T3 construct": "purchased DiscoveRx KINOMEscan", "settings": "1 µM i-CDK9", "outline": "as §1"}, "TAOK2": {"biological_target": "T4, TAOK2 (Homo sapiens, UniProt Q9UL54)", "T4 construct": "purchased DiscoveRx KINOMEscan", "settings": "read-out: % Retention on Solid Support", "outline": "as §1"}, "WEE1": {"biological_target": "T5, WEE1 (Homo sapiens, UniProt P30291)", "T5 construct": "purchased DiscoveRx KINOMEscan", "settings": "read-out: % Retention on Solid Support", "outline": "as §1"}, "PIK3CA(C420R)": {"biological_target": "T6, PIK3CA(C420R) (Homo sapiens, UniProt P42336, C420R)", "T6 construct": "purchased DiscoveRx KINOMEscan", "T6 sequence (P42336 whole entry C420R)": "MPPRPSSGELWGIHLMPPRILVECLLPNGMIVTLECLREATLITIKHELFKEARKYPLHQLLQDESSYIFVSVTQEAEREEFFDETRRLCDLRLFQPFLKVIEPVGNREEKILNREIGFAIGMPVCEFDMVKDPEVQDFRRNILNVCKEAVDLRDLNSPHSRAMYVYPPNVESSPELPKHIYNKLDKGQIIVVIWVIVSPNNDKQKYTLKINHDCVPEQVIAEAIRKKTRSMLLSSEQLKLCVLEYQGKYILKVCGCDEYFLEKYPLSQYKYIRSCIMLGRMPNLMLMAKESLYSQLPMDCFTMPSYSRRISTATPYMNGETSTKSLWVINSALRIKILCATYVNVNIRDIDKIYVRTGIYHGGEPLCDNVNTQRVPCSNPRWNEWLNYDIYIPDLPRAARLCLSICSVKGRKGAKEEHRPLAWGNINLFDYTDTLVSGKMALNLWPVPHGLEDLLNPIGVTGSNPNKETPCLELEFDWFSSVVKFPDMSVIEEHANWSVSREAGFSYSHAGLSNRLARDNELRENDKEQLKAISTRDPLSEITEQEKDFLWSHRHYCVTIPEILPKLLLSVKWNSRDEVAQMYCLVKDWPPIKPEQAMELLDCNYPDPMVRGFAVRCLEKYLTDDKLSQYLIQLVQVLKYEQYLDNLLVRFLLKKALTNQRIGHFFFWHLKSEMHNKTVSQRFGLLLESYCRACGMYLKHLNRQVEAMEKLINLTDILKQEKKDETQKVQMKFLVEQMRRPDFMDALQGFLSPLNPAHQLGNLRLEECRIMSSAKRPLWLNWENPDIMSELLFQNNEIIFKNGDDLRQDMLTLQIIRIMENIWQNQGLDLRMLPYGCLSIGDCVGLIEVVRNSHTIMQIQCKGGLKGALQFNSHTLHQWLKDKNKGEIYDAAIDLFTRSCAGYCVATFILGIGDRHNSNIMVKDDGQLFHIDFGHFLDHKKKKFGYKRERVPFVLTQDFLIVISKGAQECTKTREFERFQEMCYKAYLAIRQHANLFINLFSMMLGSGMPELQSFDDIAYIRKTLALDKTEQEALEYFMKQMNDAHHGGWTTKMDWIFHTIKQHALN", "settings": "read-out: % Retention on Solid Support", "outline": "as §1"}, "CLK1": {"biological_target": "T7, CLK1 (Homo sapiens, UniProt P49759)", "T7 construct": "purchased DiscoveRx KINOMEscan", "settings": "read-out: % Retention on Solid Support", "outline": "as §1"}, "STK33": {"biological_target": "T8, STK33 (Homo sapiens, UniProt Q9BYT3)", "T8 construct": "purchased DiscoveRx KINOMEscan", "settings": "read-out: % Retention on Solid Support", "outline": "as §1"}, "MST1": {"biological_target": "T9, MST1 (Homo sapiens, UniProt Q13043)", "T9 construct": "purchased DiscoveRx KINOMEscan", "outline": "as §1"}, "DRAK1": {"biological_target": "T10, DRAK1 (Homo sapiens, UniProt Q9UEE5)", "T10 construct": "purchased DiscoveRx KINOMEscan", "settings": "read-out: % Retention on Solid Support", "outline": "as §1"}, "DAPK2": {"biological_target": "T11, DAPK2 (Homo sapiens, UniProt Q9UIK4)", "T11 construct": "purchased DiscoveRx KINOMEscan", "settings": "read-out: % Retention on Solid Support", "outline": "as §1"}, "AURKA": {"biological_target": "T12, AURKA (Homo sapiens, UniProt O14965)", "T12 construct": "purchased DiscoveRx KINOMEscan", "T12 sequence (O14965 1-403)": "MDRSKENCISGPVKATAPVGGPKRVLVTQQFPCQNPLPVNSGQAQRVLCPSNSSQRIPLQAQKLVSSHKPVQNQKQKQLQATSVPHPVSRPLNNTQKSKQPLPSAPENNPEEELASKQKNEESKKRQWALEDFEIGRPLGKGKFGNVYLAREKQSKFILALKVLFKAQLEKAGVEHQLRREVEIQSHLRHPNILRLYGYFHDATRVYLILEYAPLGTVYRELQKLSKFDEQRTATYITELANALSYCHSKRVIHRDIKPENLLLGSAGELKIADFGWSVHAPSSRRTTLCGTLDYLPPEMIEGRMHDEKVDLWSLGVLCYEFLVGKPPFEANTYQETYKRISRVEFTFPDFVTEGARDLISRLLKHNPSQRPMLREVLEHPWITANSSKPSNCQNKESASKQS", "settings": "read-out: % Retention on Solid Support", "outline": "as §1"}, "FLT3(R834Q)": {"biological_target": "T13, FLT3(R834Q) (Homo sapiens, UniProt P36888, R834Q)", "T13 construct": "purchased DiscoveRx KINOMEscan", "settings": "1 µM i-CDK9; read-out: % Retention on Solid Support", "outline": "as §1"}, "ZAP70": {"biological_target": "T14, ZAP70 (Homo sapiens, UniProt P43403)", "T14 construct": "purchased DiscoveRx KINOMEscan", "T14 sequence (P43403 1-619)": "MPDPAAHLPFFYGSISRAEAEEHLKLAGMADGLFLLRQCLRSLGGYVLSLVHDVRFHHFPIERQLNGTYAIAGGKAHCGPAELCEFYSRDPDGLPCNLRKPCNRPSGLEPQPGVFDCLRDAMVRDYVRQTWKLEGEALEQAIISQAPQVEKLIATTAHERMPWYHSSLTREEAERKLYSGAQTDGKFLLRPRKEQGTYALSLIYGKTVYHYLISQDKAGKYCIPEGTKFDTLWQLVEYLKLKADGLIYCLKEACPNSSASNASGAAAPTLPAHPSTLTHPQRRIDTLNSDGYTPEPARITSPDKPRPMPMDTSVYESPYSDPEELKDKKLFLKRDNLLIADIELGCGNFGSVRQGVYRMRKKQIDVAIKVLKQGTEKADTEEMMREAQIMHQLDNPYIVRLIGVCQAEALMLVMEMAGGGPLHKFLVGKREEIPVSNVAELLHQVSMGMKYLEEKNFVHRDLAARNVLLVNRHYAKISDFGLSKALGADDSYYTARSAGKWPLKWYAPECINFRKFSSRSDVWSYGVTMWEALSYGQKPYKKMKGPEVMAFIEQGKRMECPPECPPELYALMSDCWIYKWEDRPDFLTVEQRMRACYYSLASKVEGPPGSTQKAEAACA", "settings": "read-out: % Retention on Solid Support", "outline": "as §1"}, "PIP5K2B": {"biological_target": "T15, PIP5K2B (Homo sapiens, UniProt P78356)", "T15 construct": "purchased DiscoveRx KINOMEscan", "settings": "read-out: % Retention on Solid Support", "outline": "as §1"}, "KIT(A829P)": {"biological_target": "T16, KIT(A829P) (Homo sapiens, UniProt P10721, A829P)", "T16 construct": "purchased DiscoveRx KINOMEscan", "T16 sequence (P10721 26-976 A829P)": "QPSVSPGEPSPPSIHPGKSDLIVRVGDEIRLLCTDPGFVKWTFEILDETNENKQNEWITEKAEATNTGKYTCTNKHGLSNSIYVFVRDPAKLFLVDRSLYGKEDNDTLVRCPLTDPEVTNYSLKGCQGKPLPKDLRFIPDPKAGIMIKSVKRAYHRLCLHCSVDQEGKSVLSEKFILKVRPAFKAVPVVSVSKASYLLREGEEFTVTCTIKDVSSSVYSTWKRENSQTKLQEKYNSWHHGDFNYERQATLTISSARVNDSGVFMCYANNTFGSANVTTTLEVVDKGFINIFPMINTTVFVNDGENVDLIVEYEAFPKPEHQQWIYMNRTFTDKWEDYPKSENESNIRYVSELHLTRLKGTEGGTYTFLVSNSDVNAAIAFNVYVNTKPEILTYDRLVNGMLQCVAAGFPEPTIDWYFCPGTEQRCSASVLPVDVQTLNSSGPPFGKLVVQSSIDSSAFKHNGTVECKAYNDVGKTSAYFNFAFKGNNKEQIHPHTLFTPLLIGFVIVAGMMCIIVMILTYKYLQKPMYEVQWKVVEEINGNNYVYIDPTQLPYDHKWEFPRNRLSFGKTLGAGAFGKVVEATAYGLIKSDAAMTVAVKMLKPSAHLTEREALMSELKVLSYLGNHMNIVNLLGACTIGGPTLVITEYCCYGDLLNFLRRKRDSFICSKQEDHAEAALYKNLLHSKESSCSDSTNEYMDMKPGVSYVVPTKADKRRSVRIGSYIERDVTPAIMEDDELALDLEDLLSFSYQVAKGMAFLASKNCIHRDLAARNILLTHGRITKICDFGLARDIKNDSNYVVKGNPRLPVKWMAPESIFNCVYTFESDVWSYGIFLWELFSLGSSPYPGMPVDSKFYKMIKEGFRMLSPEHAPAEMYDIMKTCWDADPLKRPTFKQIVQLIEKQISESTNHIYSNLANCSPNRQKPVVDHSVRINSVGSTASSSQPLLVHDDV", "settings": "1 µM i-CDK9; read-out: % Retention on Solid Support", "outline": "as §1"}, "MAPKAPK2": {"biological_target": "T17, MAPKAPK2 (Homo sapiens, UniProt P49137)", "T17 construct": "purchased DiscoveRx KINOMEscan", "settings": "read-out: % Retention on Solid Support", "outline": "as §1"}, "[2]": {"biological_target": "T18, ABL1(M351T)-nonphosphorylated (Homo sapiens, UniProt P00519, M351T)", "T18 construct": "purchased DiscoveRx KINOMEscan", "settings": "10 µM i-CDK9; read-out: % Retention on Solid Support", "outline": "as §1"}}, "data": [{"compound": "N[C@H]1CC[C@H](Nc2cc(-c3cccc(NCc4cccc(F)c4)n3)c(Cl)cn2)CC1", "note": "[i-CDK9, N2′-(trans-4-aminocyclohexyl)-5′-chloro-N6-(3-fluorobenzyl)-2,4′-bipyridine-2′,6-diamine]", "values": [{"measurement": "% Retention on Solid Support", "setting": "[1]; 1 µM i-CDK9", "value": 62, "unit": "%"}, {"measurement": "% Retention on Solid Support", "setting": "[1]; 10 µM i-CDK9", "value": 100, "unit": "%"}, {"measurement": "remaining binding at 1 µM", "setting": "CAMK1G; 1 µM i-CDK9", "value": 92, "unit": "%"}, {"measurement": "remaining binding at 10 µM", "setting": "CAMK1G; 10 µM i-CDK9", "value": 100, "unit": "%"}, {"measurement": "% Retention on Solid Support", "setting": "EGFR(T790M)", "value": 100, "unit": "%"}, {"measurement": "remaining binding at 1 µM", "setting": "TAOK2; 1 µM i-CDK9", "value": 82, "unit": "%"}, {"measurement": "remaining binding at 10 µM", "setting": "TAOK2; 10 µM i-CDK9", "value": 5.8, "unit": "%"}, {"measurement": "remaining binding at 1 µM", "setting": "WEE1; 1 µM i-CDK9", "value": 100, "unit": "%"}, {"measurement": "remaining binding at 10 µM", "setting": "WEE1; 10 µM i-CDK9", "value": 100, "unit": "%"}, {"measurement": "remaining binding at 1 µM", "setting": "PIK3CA(C420R); 1 µM i-CDK9", "value": 100, "unit": "%"}, {"measurement": "remaining binding at 10 µM", "setting": "PIK3CA(C420R); 10 µM i-CDK9", "value": 100, "unit": "%"}, {"measurement": "remaining binding at 1 µM", "setting": "CLK1; 1 µM i-CDK9", "value": 14, "unit": "%"}, {"measurement": "remaining binding at 10 µM", "setting": "CLK1; 10 µM i-CDK9", "value": 0.55, "unit": "%"}, {"measurement": "remaining binding at 1 µM", "setting": "STK33; 1 µM i-CDK9", "value": 88, "unit": "%"}, {"measurement": "remaining binding at 10 µM", "setting": "STK33; 10 µM i-CDK9", "value": 100, "unit": "%"}, {"measurement": "% Retention on Solid Support", "setting": "MST1; 1 µM i-CDK9", "value": 100, "unit": "%"}, {"measurement": "% Retention on Solid Support", "setting": "MST1; 10 µM i-CDK9", "value": 100, "unit": "%"}, {"measurement": "remaining binding at 1 µM", "setting": "DRAK1; 1 µM i-CDK9", "value": 90, "unit": "%"}, {"measurement": "remaining binding at 10 µM", "setting": "DRAK1; 10 µM i-CDK9", "value": 48, "unit": "%"}, {"measurement": "remaining binding at 1 µM", "setting": "DAPK2; 1 µM i-CDK9", "value": 90, "unit": "%"}, {"measurement": "remaining binding at 10 µM", "setting": "DAPK2; 10 µM i-CDK9", "value": 80, "unit": "%"}, {"measurement": "remaining binding at 1 µM", "setting": "AURKA; 1 µM i-CDK9", "value": 92, "unit": "%"}, {"measurement": "remaining binding at 10 µM", "setting": "AURKA; 10 µM i-CDK9", "value": 97, "unit": "%"}, {"measurement": "remaining binding at 1 µM", "setting": "FLT3(R834Q)", "value": 36, "unit": "%"}, {"measurement": "remaining binding at 1 µM", "setting": "ZAP70; 1 µM i-CDK9", "value": 1.6, "unit": "%"}, {"measurement": "remaining binding at 10 µM", "setting": "ZAP70; 10 µM i-CDK9", "value": 96, "unit": "%"}, {"measurement": "remaining binding at 1 µM", "setting": "PIP5K2B; 1 µM i-CDK9", "value": 100, "unit": "%"}, {"measurement": "remaining binding at 10 µM", "setting": "PIP5K2B; 10 µM i-CDK9", "value": 77, "unit": "%"}, {"measurement": "remaining binding at 1 µM", "setting": "KIT(A829P)", "value": 100, "unit": "%"}, {"measurement": "remaining binding at 1 µM", "setting": "MAPKAPK2; 1 µM i-CDK9", "value": 100, "unit": "%"}, {"measurement": "remaining binding at 10 µM", "setting": "MAPKAPK2; 10 µM i-CDK9", "value": 100, "unit": "%"}, {"measurement": "remaining binding at 10 µM", "setting": "[2]", "value": 100, "unit": "%"}]}]}
